One data set has as its target T1, P2X purinoceptor 2 (Homo sapiens, UniProt Q9UBL9).
T1 sequence (Q9UBL9 whole entry): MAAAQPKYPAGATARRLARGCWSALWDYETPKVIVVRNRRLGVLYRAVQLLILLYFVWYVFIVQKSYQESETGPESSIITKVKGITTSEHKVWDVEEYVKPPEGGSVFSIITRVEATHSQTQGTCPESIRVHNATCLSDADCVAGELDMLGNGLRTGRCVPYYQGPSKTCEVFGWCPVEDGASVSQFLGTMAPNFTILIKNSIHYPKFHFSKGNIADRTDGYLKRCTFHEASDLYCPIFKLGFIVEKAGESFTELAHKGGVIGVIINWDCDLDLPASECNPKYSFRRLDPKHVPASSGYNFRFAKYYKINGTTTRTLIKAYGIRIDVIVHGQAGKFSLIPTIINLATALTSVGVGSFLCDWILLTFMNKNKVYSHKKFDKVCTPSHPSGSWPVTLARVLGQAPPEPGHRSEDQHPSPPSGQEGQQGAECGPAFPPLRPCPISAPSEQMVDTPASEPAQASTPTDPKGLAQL
The data set is described as follows: Antagonist activity at P2X2 receptor (unknown origin).

For data set [1], the system named is Rattus norvegicus. The data set is described as follows: Analgesic activity in po dosed rat model of partial sciatic nerve ligation-induced neuropathic pain. Type of data set: functional.
Data set [2] is described as follows: Solubility of the compound in JP2 fluid at pH 6.8. Type of data set: physicochemical.
Data set [3] in a line: Protein binding in rat plasma assessed as unbound fraction at 3 mg/kg, iv. Type of data set: ADME, organism-based.
The next data set has as its target Cytochrome P450 2C9 (Homo sapiens, UniProt P11712). Nature of the data set: Inhibition of CYP2C9 (unknown origin). Type of data set: ADME.
The target in the next data set is Cytochrome P450 3A4 (Homo sapiens, UniProt P08684). The data set is described as follows: Inhibition of CYP3A4 (unknown origin). The format is ADME.
The nature of data set [4]: Protein binding in rat plasma assessed as unbound fraction at 1 mg/kg administered as cassette dose. The format is ADME, organism-based.
The target in a further data set is Cytochrome P450 2D6 (Homo sapiens, UniProt P10635). The data set is described as follows: Inhibition of CYP2D6 (unknown origin). Type of data set: functional.
For a further data set, the target named is Cytochrome P450 2C19 (Homo sapiens, UniProt P33261). The data set is described as follows: Inhibition of CYP2C19 (unknown origin). The format is ADME.
Data set [5] in a line: AUC in rat at 3 mg/kg, po. The format is ADME, organism-based. More on the design: dose 3 mg/kg. The conditions noted are these: in vivo.
For the next data set, the target named is T2, P2X purinoceptor 3 (Rattus norvegicus, UniProt P49654).
T2 sequence (P49654 whole entry): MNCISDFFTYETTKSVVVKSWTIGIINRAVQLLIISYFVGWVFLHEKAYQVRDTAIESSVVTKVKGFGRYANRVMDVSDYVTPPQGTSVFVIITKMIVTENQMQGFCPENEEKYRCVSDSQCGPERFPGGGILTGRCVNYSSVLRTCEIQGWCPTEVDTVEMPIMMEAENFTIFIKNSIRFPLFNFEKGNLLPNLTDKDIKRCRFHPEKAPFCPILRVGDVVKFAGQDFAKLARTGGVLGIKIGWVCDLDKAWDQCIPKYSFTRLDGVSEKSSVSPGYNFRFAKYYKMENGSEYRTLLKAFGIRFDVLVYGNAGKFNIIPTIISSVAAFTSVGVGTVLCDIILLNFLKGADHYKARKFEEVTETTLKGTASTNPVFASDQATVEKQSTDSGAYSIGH
Nature of the data set: Antagonist activity at rat P2X3 receptor.

In the next data set the target is T3, P2X purinoceptor 7 (Homo sapiens, UniProt Q99572).
T3 sequence (Q99572 whole entry): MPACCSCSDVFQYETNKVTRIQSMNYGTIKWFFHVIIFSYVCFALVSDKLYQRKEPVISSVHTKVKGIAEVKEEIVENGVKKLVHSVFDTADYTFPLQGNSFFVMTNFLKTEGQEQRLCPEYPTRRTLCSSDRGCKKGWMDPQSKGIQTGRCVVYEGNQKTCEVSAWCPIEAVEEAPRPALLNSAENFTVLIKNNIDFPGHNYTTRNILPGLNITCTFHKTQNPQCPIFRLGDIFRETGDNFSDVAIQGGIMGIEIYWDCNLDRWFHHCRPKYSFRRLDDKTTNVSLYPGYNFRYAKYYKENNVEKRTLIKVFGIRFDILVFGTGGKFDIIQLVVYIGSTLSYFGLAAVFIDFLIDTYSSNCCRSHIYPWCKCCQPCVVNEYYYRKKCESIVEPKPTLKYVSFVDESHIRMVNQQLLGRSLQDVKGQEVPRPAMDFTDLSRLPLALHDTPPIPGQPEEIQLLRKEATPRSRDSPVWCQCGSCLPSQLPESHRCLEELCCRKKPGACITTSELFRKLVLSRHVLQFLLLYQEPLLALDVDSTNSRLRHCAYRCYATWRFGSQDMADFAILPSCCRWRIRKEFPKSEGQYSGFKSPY
The data set is described as follows: Antagonist activity at P2X7 receptor (unknown origin).

Data set [6] is described as follows: Cmax in rat at 3 mg/kg, po. The format is ADME, organism-based. More on the design: route oral, dose 3 mg/kg. Conditions: in vivo.
A further data set concerns the target T4, P2X purinoceptor 1 (Homo sapiens, UniProt P51575).
T4 sequence (P51575 whole entry): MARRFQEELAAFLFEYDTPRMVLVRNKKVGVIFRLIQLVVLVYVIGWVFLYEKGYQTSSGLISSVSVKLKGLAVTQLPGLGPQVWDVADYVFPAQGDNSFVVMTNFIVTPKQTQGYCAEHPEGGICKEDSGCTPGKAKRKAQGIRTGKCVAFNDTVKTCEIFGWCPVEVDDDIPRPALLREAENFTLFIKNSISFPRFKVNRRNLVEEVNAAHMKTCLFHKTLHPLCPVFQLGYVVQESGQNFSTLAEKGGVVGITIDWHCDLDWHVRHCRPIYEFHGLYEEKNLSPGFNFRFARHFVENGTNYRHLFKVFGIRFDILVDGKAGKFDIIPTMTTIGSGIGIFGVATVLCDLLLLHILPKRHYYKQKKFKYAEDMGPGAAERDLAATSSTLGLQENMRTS
The data set is described as follows: Antagonist activity at P2X1 receptor (unknown origin).

Data set [7] is described as follows: Ratio of free plasma concentration in rat measured after 3 hrs to IC50 of P2X3 (unknown origin). Type of data set: ADME.
Data set [8] can be described thus: Half life in rat at 1 mg/kg, iv. The format is ADME, organism-based. Conditions: in vivo.
Data set [9] is described as follows: Clearance in rat at 1 mg/kg, iv. The format is ADME, organism-based. Conditions: in vivo.
Data set [10] can be described thus: Oral bioavailability in rat at 1 mg/kg administered as cassette dose. The format is ADME, organism-based. The conditions noted are these: in vivo.
Data set [11] is described as follows: Solubility of the compound in pH 1.2 JP1 fluid. Type of data set: physicochemical.
A short description of data set [12]: Free plasma concentration in rat plasma at 1 mg/kg administered as cassette dose. The format is ADME, organism-based. The conditions noted are these: in vivo.
The subject of data set [13] is Rattus norvegicus. Nature of the data set: Analgesic activity in rat model of partial sciatic nerve ligation-induced neuropathic pain assessed as reversal of allodynia at 3 mg/kg, po measured after 3 hrs relative to control. The format is functional.

Converted amounts (≈) assume the structure as drawn.

Chain of Cytochrome P450 3A4 (P08684 whole entry): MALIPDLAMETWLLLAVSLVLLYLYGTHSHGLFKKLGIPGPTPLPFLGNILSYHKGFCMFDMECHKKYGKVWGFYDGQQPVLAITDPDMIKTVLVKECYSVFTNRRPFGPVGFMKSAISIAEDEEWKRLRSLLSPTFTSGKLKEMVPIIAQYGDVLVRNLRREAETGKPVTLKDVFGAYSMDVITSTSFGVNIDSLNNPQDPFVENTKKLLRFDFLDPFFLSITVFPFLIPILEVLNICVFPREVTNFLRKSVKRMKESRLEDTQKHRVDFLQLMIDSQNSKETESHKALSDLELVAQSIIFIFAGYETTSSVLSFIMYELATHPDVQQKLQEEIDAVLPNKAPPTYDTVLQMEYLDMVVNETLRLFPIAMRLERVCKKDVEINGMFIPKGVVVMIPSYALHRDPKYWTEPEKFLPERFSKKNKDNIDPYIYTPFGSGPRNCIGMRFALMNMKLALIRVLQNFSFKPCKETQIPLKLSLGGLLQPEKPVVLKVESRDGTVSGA
Chain of Cytochrome P450 2D6 (P10635 whole entry): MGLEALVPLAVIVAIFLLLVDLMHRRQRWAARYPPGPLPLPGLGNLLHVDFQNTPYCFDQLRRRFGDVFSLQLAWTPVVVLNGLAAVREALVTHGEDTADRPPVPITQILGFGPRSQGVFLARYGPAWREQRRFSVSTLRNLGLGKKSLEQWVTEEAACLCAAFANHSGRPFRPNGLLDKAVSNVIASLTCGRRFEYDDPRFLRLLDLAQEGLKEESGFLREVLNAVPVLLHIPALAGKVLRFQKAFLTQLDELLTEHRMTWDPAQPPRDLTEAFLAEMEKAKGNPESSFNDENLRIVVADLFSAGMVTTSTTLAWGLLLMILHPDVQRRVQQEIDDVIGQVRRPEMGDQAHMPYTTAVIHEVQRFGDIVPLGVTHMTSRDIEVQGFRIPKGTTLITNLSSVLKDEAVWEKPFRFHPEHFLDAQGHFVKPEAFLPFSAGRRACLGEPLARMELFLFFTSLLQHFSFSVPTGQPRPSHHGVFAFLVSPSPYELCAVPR
Chain of Cytochrome P450 2C9 (P11712 whole entry): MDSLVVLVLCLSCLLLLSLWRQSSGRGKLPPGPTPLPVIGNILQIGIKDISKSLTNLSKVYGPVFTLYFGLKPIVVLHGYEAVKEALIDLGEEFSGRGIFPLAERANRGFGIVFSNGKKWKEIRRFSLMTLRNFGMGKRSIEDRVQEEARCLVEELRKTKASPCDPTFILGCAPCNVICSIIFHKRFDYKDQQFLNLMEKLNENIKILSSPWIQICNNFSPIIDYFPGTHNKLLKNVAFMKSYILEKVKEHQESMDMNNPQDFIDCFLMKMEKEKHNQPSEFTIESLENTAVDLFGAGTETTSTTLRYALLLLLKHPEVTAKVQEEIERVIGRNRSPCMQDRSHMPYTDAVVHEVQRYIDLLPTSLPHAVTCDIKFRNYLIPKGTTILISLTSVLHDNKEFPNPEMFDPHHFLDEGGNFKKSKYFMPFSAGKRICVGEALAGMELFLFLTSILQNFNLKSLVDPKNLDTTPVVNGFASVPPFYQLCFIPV
Chain of Cytochrome P450 2C19 (P33261 whole entry): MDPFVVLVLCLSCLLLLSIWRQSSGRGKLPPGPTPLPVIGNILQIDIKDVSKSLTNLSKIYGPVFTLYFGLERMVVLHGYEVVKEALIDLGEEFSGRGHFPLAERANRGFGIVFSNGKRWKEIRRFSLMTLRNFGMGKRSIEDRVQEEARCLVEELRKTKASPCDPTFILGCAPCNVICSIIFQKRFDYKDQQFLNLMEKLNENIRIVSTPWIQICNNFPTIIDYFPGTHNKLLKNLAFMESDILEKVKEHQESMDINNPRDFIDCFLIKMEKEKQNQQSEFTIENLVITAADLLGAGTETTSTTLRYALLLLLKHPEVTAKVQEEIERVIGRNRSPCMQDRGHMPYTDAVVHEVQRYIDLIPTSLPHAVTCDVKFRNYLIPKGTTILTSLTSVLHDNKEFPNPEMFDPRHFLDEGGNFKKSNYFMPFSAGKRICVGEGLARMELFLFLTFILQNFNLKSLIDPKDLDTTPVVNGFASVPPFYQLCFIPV

Consider `C[C@@H](Cn1c(=O)[nH]/c(=N\c2ccc(Oc3ccccn3)cc2)n(Cc2ccc(Cl)cc2)c1=O)C(=O)O`, for which the IC50 was over 30 µM against P2X purinoceptor 2; over 20 µM against Cytochrome P450 2C9; over 20 µM against Cytochrome P450 3A4; over 20 µM on Cytochrome P450 2D6; over 20 µM against Cytochrome P450 2C19; 0.004 µM against P2X purinoceptor 3. In addition, the IC50 on P2X purinoceptor 7 and on P2X purinoceptor 1 was over 30 µM each time. The compound also displayed an ED50 in the data set on Rattus norvegicus [1] of 0.4 mg/kg. Further, the figures for the solubility in data set [2] and in [11] were 458 µg/mL (≈ 902 µM) and 31.5 µg/mL (≈ 62 µM), respectively. Also, the fraction unbound in data set [3] and in [4] was 0.01 throughout. Further, the AUC in data set [5] was 14000 ng·h/mL. Moreover, in data set [6], the peak level (Cmax) was 1630 ng/mL. Besides, in data set [7], the Ratio was 1.57. In data set [8], this compound gave a half-life of 10.1 h. Also, the clearance in data set [9] came to 2.7 mL/min/kg. For the same compound, the bioavailability in data set [10] is 52.8%. In addition, in [12], the “Cp(f)” value is 658 nM. For the same compound, the Activity in the data set on Rattus norvegicus [13] was 64%.

As usually defined, the IC50 is the concentration that inhibits the measured activity by half. As usually defined, the ED50 is the dose that gives a 50% effect, or the effect in half of the subjects. Read a low ED50 as an effect at a small dose. What is called solubility is how much of the substance goes into solution per volume. High values mean much dissolved substance, low ones little dissolved substance. In general, fraction unbound refers to the share of the substance not bound to proteins or other matrix. As a reminder, the AUC is the area under the concentration-time curve, a measure of exposure. Low readings indicate less exposure, high ones more exposure. A word on the Cmax: it is the peak of the concentration-time curve. In general, half-life refers to how long it takes for the measured level to halve. Read a high half-life as slow decline. Broadly, the clearance is the volume of plasma or blood freed of the substance per unit of time. A higher clearance goes with a high capacity for elimination. Usually bioavailability stands for dose-corrected exposure relative to a reference, in per cent. A higher bioavailability goes with much systemic uptake.

For the origin of these results see ChEMBL document CHEMBL5030545, “Discovery of clinical candidate Sivopixant (S-600918): Lead optimization of dioxotriazine derivatives as selective P2X3 receptor antagonists” (Bioorg Med Chem Lett, 2021).
